Like-named read-outs stand apart in the source and are kept apart here.
Assays:
[1] = molecular target: T1, LasB (Pseudomonas aeruginosa, UniProt Q02RJ6); experiment: In vitro LasB inhibition assay; format: biochemical; details: for fold loss in inhibition: bulkier residues
T1 construct: made in house
Experimental: (§1) 3.1 In vitro inhibition assays
LasB was expressed and purified as described previously.[3] In vitro inhibition assays (LasB,
MMPs, TACE). All in vitro inhibition assays were performed as described previously.[10] […]
Fluorescence signals were measured using a CLARIOstar plate reader (BMG
Labtech, Ortenberg, Germany). […]

[2] = system: A549 cells; experiment: Cytotoxicity A549; format: cell-based; details: Homo sapiens, A549, read-out: A549 % inhibition at 100 µM (metabolic activity), 48 hours
Experimental: (§2) HepG2 (human hepatocellular carcinoma), HEK293 (human embryonal kidney) and A549
(§3) (human lung carcinoma) cells (2x10^5 cells per well) were seeded in 24-well in flat-bottomed
(§4) plates. Culturing of cells, incubations and OD measurements were performed as described
(§5) previously with small modifications.[14] Twenty-four hours after seeding the cells the incubation
(§6) was started by the addition of compounds in a final DMSO concentration of 1%. The living cell
(§7) mass was determined after 48 hours in a PHERAstar microplate reader (BMG labtech,
(§8) Ortenberg, Germany). Two independent measurements were performed for each compound.

[3] = molecular target: T2, TACE (ADAM17) (Homo sapiens, UniProt P78536); experiment: TACE (ADAM17) inhibition (off-target); format: biochemical; details: read-out: TACE (ADAM17) % inhibition at 100 µM
T2 construct: purchased Sigma-Aldrich (Saint Louis, MO)
T2 sequence (P78536 215-824): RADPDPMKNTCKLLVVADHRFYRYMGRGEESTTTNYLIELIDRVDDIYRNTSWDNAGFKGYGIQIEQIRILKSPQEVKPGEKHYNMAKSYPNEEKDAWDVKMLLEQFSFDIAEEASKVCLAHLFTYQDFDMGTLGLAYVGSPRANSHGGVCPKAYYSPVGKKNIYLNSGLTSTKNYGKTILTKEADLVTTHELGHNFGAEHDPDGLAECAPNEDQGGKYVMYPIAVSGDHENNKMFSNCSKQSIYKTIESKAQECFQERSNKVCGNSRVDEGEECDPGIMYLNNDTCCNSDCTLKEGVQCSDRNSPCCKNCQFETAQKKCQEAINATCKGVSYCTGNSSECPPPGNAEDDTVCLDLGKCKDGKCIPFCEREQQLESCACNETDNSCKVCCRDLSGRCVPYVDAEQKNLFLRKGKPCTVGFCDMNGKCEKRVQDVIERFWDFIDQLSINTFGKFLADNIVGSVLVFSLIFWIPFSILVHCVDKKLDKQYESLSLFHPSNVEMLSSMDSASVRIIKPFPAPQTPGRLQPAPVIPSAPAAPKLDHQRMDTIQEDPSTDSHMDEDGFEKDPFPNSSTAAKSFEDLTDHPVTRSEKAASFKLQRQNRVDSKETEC
Experimental: as §1
(§9) LasB was expressed and purified as described previously.[3] In vitro inhibition assays (LasB, MMPs, TACE). All in vitro inhibition assays were performed as described previously.[10] TACE inhibitor screening kits were purchased from Sigma-Aldrich (Saint Louis, MO). MMPs along with the SensoLyte 520 Generic MMP Activity Kit Fluorimetric were purchased from AnaSpec (Fremont, CA, USA). The assays were performed according to the guidelines of the respective manufacturer. Fluorescence signals were measured using a CLARIOstar plate reader (BMG Labtech, Ortenberg, Germany). […]
(§10) 3.8 Test against zinc metalloproteases MMP1–3 and TACE (ADAM17), and testing of
(§11) We selected a panel of human off -targets, including three human matrix metalloproteases (MMP-1, -2 and -3) and TACE (ADAM-17). These assays were performed as described previously.[3] The TACE inhibitor screening kit was purchased from Sigma -Aldrich (Saint Louis, MO). MMPs along with the SensoLyte 520 Generic MMP Activity Kit Fluorimetric were purchased from AnaSpec (Fremont, CA, USA). The assays were performed according to the guidelines of the respective manufacturer. Fluorescence signals were measured using a CLARIOstar plate reader (BMG Labtech, Ortenberg, Germany). […]
(§12) Table S6: Percent (%) inhibition of three MMPs (1 –3) and TACE (ADAM17) in presence of selected LasB inhibitors at 100 µM. Results are means and SD of at least two independent experiments. […]
(§13) Compound [% inhibition at [% inhibition at [% inhibition at [% inhibition at 100

[4] = system: Pseudomonas aeruginosa strain PA14; experiment: Antibacterial effect on P. aeruginosa PA14 growth; format: cell-based; details: PA14, read-out: P. aeruginosa PA14 % inhibition of growth at 100 µM, 18 h, 37 °C
Experimental: Table S14: Food consumption after treatment with (R)-30.
Table S15: Body and organ weights (gram) after treatment with (R)-30.
3.12 Antibacterial effects
As start OD600 of Pseudomonas aeruginosa strain PA14 we used 0.03 in a total volume of 200
µL in lysogeny broth containing the compounds predissolved in DMSO (max. 1%). Final
compound concentrations prepared from serial dilutions ranged from 3.125 to 100 µM (double
values for each concentration). The ODs were determined after addition of the compounds and
again after incubation for 18 h at 37 °C and 200 rpm in 96 well plates (Sarstedt, Nümbrecht,
Germany) using a FLUOStar Omega (BMG labtech, Ortenberg, Germany). Given percent (%)
inhibition values are means of at least two independent determinations. To obtain the values
for a given compound, their ODs were compared to those of DMSO controls. Concerning the […]

[5] = molecular target: T3, MMP-2 (Homo sapiens, UniProt P08253); experiment: MMP-2 inhibition (off-target); format: biochemical; details: read-out: MMP-2 % inhibition at 100 µM
T3 construct: purchased AnaSpec (Fremont, CA, USA)
T3 sequence (P08253 110-660): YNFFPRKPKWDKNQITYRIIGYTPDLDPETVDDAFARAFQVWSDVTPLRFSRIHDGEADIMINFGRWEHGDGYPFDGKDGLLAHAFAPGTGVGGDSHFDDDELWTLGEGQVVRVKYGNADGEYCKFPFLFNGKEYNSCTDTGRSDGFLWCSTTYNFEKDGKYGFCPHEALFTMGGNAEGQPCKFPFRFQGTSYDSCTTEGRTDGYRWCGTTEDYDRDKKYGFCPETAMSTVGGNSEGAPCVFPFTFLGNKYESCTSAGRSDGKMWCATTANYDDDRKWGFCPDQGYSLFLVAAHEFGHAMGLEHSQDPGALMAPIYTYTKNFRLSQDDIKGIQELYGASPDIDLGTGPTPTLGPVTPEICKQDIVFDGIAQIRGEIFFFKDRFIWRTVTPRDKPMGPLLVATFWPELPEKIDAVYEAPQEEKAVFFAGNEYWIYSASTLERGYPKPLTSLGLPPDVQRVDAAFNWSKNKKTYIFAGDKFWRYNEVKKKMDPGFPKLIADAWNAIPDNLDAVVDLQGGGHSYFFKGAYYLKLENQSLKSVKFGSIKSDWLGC
Experimental: 3.1 In vitro inhibition assays […]
as §9, with “MMPs,” for “LasB was expressed and purified as described previously.[3] In vitro inhibition assays (LasB, MMPs,”
as §10, §11, §12, §13

[6] = system: HEK293 cells; experiment: Cytotoxicity HEK293; format: cell-based; details: Homo sapiens, HEK293, read-out: HEK293 % inhibition at 100 µM (metabolic activity), 48 hours
Experimental: as §2, §3, §4, §5, §6, §7, §8

[7] = molecular target: T4, MMP-3 (Homo sapiens, UniProt P08254); experiment: MMP-3 inhibition (off-target); format: biochemical; details: read-out: MMP-3 % inhibition at 100 µM
T4 construct: purchased AnaSpec (Fremont, CA, USA)
T4 sequence (P08254 100-477): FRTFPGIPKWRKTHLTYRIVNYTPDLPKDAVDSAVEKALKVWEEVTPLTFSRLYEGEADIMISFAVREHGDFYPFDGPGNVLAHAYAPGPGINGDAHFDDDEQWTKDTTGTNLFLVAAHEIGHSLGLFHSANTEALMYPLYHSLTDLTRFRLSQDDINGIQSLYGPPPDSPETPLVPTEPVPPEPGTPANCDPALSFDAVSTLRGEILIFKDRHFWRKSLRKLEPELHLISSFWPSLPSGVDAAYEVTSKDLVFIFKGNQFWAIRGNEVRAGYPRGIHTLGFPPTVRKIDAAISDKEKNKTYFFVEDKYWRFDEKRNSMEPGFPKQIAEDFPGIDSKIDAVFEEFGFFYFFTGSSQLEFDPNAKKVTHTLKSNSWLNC
Experimental: as §1, §9, §10, §11, §12, §13

[8] = system: HepG2 cells; experiment: Cytotoxicity HepG2; format: cell-based; details: Homo sapiens, HepG2, read-out: HepG2 % inhibition at 100 µM (metabolic activity), 48 hours
Experimental: as §2, §3, §4, §5, §6, §7, §8

[9] = molecular target: T5, MMP-1 (Homo sapiens, UniProt P03956); experiment: MMP-1 inhibition (off-target); format: biochemical; details: read-out: MMP-1 % inhibition at 100 µM
T5 construct: purchased AnaSpec (Fremont, CA, USA)
T5 sequence (P03956 100-469): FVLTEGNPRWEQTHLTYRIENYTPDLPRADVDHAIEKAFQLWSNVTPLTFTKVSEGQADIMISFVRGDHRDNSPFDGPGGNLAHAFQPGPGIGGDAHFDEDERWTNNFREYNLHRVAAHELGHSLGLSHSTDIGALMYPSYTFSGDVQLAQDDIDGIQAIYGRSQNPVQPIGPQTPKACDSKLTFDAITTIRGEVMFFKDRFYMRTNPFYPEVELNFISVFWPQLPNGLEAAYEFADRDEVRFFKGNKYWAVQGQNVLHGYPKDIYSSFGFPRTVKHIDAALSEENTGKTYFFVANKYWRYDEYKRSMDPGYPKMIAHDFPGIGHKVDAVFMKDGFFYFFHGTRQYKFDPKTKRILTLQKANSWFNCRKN
Experimental: as §1, §9, §10, §11, §12, §13

T1 sequence (Q02RJ6 198-498): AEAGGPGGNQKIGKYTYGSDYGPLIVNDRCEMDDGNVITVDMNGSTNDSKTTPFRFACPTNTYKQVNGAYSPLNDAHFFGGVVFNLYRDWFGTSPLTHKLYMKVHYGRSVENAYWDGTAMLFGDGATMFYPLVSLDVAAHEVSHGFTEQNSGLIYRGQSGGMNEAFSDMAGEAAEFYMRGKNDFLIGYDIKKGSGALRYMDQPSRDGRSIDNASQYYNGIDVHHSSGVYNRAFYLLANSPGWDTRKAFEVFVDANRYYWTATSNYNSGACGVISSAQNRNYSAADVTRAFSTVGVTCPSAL

Work on COC[C@H](NC(=O)[C@@H](CC(C)C)P(=O)(O)O)C(=O)Nc1ccc(Cl)c(Cl)c1 [(R)‐18] yielded an IC50 ([1]; IC50 LasB inhibition) of 86.7 ± 3.6 nM.

Work on CC(C)C[C@H](C(=O)N[C@@H](Cc1cccnc1)C(=O)Nc1ccc(Cl)c(Cl)c1)P(=O)(O)O [(R)‐25] yielded an IC50 ([1]; read-out: IC50 LasB inhibition) of 574 ± 16 nM.

Work on COC[C@H](NC(=O)[C@H](CC(C)C)P(=O)(O)O)C(=O)Nc1ccc(Cl)c(Cl)c1 [(S)‐18] yielded an IC50 ([1]; IC50 LasB inhibition) of 197 ± 5.4 nM.

CC(=O)c1ccc(NC(=O)[C@@H](NC(=O)[C@H](CC(C)C)P(=O)(O)O)C(C)C)cc1 [(S)‐30] showed an IC50 ([1]; IC50 LasB inhibition) of 129 ± 4 nM.

CC(C)C[C@@H](C(=O)N[C@H](C(=O)Nc1ccc(-n2ccnc2)cc1)C(C)C)P(=O)(O)O [(S)‐36] gave an IC50 ([1]; IC50 LasB inhibition) of 417 ± 14 nM.

CC(C)CC(C(=O)Nc1ccc(C(F)(F)F)cc1)P(=O)(O)O (stereo not shown) [compound 5, reference compound] was tested, and the “fold enhancement in IC50 compared to the original hit” value ([1]; compared to thiol-based hit 4) was 18 fold.

With CC(C)CC(C(=O)N[C@@H](C)C(=O)Nc1ccc(Cl)c(Cl)c1)P(=O)(O)O (stereo partly shown) [compound 8] the “fold increase in activity” value ([1]; alanine versus glycine dipeptide 7) was 28 fold and the IC50 ([1]; read-out: IC50 LasB inhibition) was 61.7 ± 1.6 nM.

Work on CC(C)CC(C(=O)N[C@@H](C(=O)Nc1ccc(Cl)c(Cl)c1)C(C)C)P(=O)(O)O (stereo partly shown) [compound 10] yielded an IC50 ([1]; IC50 LasB inhibition) of 11.3 ± 0.4 nM.

CC(C)CC(C(=O)N[C@H](CC(=O)Nc1ccc(Cl)c(Cl)c1)C(C)C)P(=O)(O)O (stereo partly shown) [compound 11] showed an IC50 ([1]; IC50 LasB inhibition) of 2720 ± 55 nM.

CC(C)CC(C(=O)N[C@H](C(=O)Nc1ccc(Cl)c(Cl)c1)C1CC1)P(=O)(O)O (stereo partly shown) [compound 12] showed an IC50 ([1]; IC50 LasB inhibition) of 28.8 ± 0.8 nM.

In the case of CC[C@H](C)[C@H](NC(=O)C(CC(C)C)P(=O)(O)O)C(=O)Nc1ccc(Cl)c(Cl)c1 (stereo partly shown) [compound 15], the IC50 ([1]; read-out: IC50 LasB inhibition) is reported as 13.1 ± 0.5 nM.

In the case of CC(C)CC(C(=O)N[C@@H](CC1CC1)C(=O)Nc1ccc(Cl)c(Cl)c1)P(=O)(O)O (stereo partly shown) [compound 16], the IC50 ([1]; read-out: IC50 LasB inhibition) is reported as 27.1 ± 0.9 nM.

Work on CC(C)CC(C(=O)N[C@@H](CC(C)C)C(=O)Nc1ccc(Cl)c(Cl)c1)P(=O)(O)O (stereo partly shown) [compound 17] yielded an IC50 ([1]; read-out: IC50 LasB inhibition) of 59.4 ± 1.7 nM.

CC(C)CC(C(=O)N[C@@H](CC1CCCCC1)C(=O)Nc1ccc(Cl)c(Cl)c1)P(=O)(O)O (stereo partly shown) [compound 19] was tested, and the “fold loss in inhibition” value [1] was “over 48 fold”.

For CC(C)CC(C(=O)N[C@@H](CC1CCOCC1)C(=O)Nc1ccc(Cl)c(Cl)c1)P(=O)(O)O (stereo partly shown) [compound 20], the “fold loss in inhibition” value [1] was “over 48 fold” and the IC50 ([1]; read-out: IC50 LasB inhibition) was 379 ± 8 nM.

Work on CC(C)CC(C(=O)N[C@H](C(=O)Nc1ccc(Cl)c(Cl)c1)c1ccccc1)P(=O)(O)O (stereo partly shown) [compound 22] yielded an IC50 ([1]; read-out: IC50 LasB inhibition) of 99.6 ± 2.5 nM.

For CC(C)CC(C(=O)N[C@@H](Cc1ccccc1)C(=O)Nc1ccc(Cl)c(Cl)c1)P(=O)(O)O (stereo partly shown) [compound 23], the IC50 ([1]; read-out: IC50 LasB inhibition) was 426 ± 48 nM.

CC(C)CC(C(=O)N[C@H](C(=O)Nc1ccc(Cl)cc1)C(C)C)P(=O)(O)O (stereo partly shown) [compound 27] was tested, and the IC50 ([1]; IC50 LasB inhibition) was 9 ± 0.4 nM.

CC(C)CC(C(=O)N[C@H](C(=O)Nc1cccc(Cl)c1)C(C)C)P(=O)(O)O (stereo partly shown) [compound 28] gave an IC50 ([1]; IC50 LasB inhibition) of 282 ± 13 nM.

With CC(C)CC(C(=O)N[C@H](C(=O)Nc1ccc(C(F)(F)F)cc1)C(C)C)P(=O)(O)O (stereo partly shown) [compound 29] the IC50 ([1]; IC50 LasB inhibition) was 15.2 ± 0.3 nM.

For CC(C)CC(C(=O)N[C@H](C(=O)Nc1ccc(C(=O)C(F)(F)F)cc1)C(C)C)P(=O)(O)O (stereo partly shown) [compound 31], the inhibition at 100 µM [2] was less than 10%, the inhibition at 100 µM [3] was less than 10% and the IC50 ([1]; IC50 LasB inhibition) was 21.7 ± 0.6 nM. For the same compound, the inhibition at 100 µM [4] was less than 10%, the inhibition at 100 µM [5] was less than 10% and the inhibition at 100 µM [6] was 19 ± 5%. It also gave an inhibition at 100 µM [7] of less than 10%, an inhibition at 100 µM [8] of less than 10% and an inhibition at 100 µM [9] of less than 10%.

Cc1ccc(NC(=O)[C@@H](NC(=O)C(CC(C)C)P(=O)(O)O)C(C)C)cc1 (stereo partly shown) [compound 32] gave an IC50 ([1]; IC50 LasB inhibition) of 12.9 ± 0.4 nM.

With COc1ccc(NC(=O)[C@@H](NC(=O)C(CC(C)C)P(=O)(O)O)C(C)C)cc1 (stereo partly shown) [compound 33] the IC50 ([1]; IC50 LasB inhibition) was 19.9 ± 0.8 nM.

CC(C)CC(C(=O)N[C@H](C(=O)Nc1ccc(OC(C)C)cc1)C(C)C)P(=O)(O)O (stereo partly shown) [compound 34] was tested, and the IC50 ([1]; IC50 LasB inhibition) was 56.7 ± 2 nM.

With CC(C)CC(C(=O)N[C@H](C(=O)Nc1ccc(Oc2ccccc2)cc1)C(C)C)P(=O)(O)O (stereo partly shown) [compound 35] the IC50 ([1]; IC50 LasB inhibition) was 8 ± 0.3 nM.

For CC(C)CC(C(=O)N[C@H](C(=O)Nc1ccc(N2CCOCC2)cc1)C(C)C)P(=O)(O)O (stereo partly shown) [compound 37], the IC50 ([1]; IC50 LasB inhibition) was 83.7 ± 2.1 nM and the “fold decrease in activity compared to 9” value ([1]; compared to 9) was 16 fold.
